This is an account of results in US20240299299A1, “COMPOSITIONS AND METHODS FOR INCREASING THE EFFICACY OF IMMUNOTHERAPIES AND VACCINES” (The Regents of the University of Michigan, priority 2021, published 2024).

A short description of data set [1]: Encapsulation of DHB-based prodrugs in lipid-based formulation. The class given is physicochemical. The settings on record: oleic acid, Tween 80, PBS emulsion. As to the method:
The DHB-based prodrugs were synthesized by the Medicinal Chemistry Core in University of Michigan. To prepare the formulation, the prodrug #201 or #905 (4 mg) was added to the mixture of oleic acid (45 μL) and Tween 80 (25 μL) and incubated overnight to equilibrate and allow the prodrug to dissolve. Then an aqueous phase consisting of PBS buffer was added, and the formulation emulsified by ultrasonication with an ultrasonic processor.

The test system of data set [2] is immune checkpoint blockers (ICBs). The settings on record: reported in literature; cited from earlier work.
For data set [3], the system named is OT-I CD8+ T cells. Briefly: Tcf1+CD8+ differentiation of OT-I T cells with metabolites. The format is cell-based, mice. The settings on record: day 6. The procedure:
FIG. 3: a) OT-I CD8+ T cells were cultured with different metabolites in vitro as indicated, b,c) shown are the frequency of the Tcf1^+CD8+ T cells and the representative flow cytometry plots on day 6. Data represent the mean±s.e.m. (n=5).
Splenocytes from OT-I mice were obtained aseptically. The cells were cultured in 96-well plates (1×10^5 cells per well). For Tcm differentiation study, cells were activated with SIINFEKL peptide (4×10^−9M) in the presence of various metabolites (arginine: 3 mM; 3-methylhistidine: 3 mM; N-acetylneuraminate: 100 μM; disodium sebacate: 100 μM; DHB: 100 μM; pantothenate: 100 μM; γ-aminobutyric acid: 100 μM; glycerol: 100 μM; AICAR: 100 μM, sodium ferulate: 100 μM) for 3 days. Then cells were washed three times with T-cell medium and further cultured with IL-2 (10 ng ml^−1; PeproTech) in the presence of metabolites for 5 days. The cells were then washed twice and re-activated with SIINFEKL peptide (10 μM) for 2 h. The suspension cells were collected, blocked with CD16/32 antibody and stained with the fixable viability dye eFluor 450, FITC-CD44 rat anti-human/mouse and PE-CD62L monoclonal antibody. To test if the central memory CD8+ T cells differentiation is dependent on dendritic cells, CD8 T cells isolated from the spleen in OT-I mice were incubated in the 96-well plate, which was precoated with anti-hamster IgG antibody. […] (1 μg mL^−1) and IL-2 (100 U mL^−1) were added into each well in the presence of 3-methylhistidine (3 mM), DHB (100 μM), or sodium ferulate (100 μM) for 2 days. Then cells were washed for three times to remove α-CD3/α-CD28 antibodies and further incubated with metabolites and IL-2 (10 ng ml^−1) for 5 days. Thereafter, cells were collected for central memory CD8^+ T cells analysis. For CD8^+ T cells survival study, cells were activated with antigen peptide as above, following with thoroughly washing, and incubation in presence of IL-2 for 2 days. […] Tcf1^+CD8^+, CD44^+CD62L^+CD8^+ and survival (stained with Annexin V-APC and PI) T cells were detected via flow cytometry.

For data set [4], the system named is OT-I CD8+ T cells. The data set can be described thus: In vitro central memory (Tcm) differentiation of OT-I CD8+ T cells activated with SIINFEKL peptide and IL-2 with metabolites. The settings on record: day 8; metabolite-supplemented medium (arginine 3 mM, 3-methylhistidine 3 mM, DHB 100 μM, sodium ferulate 100 μM). The class given is cell-based, mice. As to the method:
FIG. 2: a) OT-I CD8+ T cells were cultured with different metabolites in vitro as indicated, b,c) shown is the frequency of CD44^+CD62L^+ Tcm CD8+ T cells on day 8. d) OT-I CD8+ T cells were activated with α-CD3/α-CD28 antibodies in presence of metabolites as indicated and shown is the Tcm CD8+ T cells on day 7. Data represent the mean±s.e.m. (n=5).
Splenocytes from OT-I mice were obtained aseptically. The cells were cultured in 96-well plates (1×10^5 cells per well). For Tcm differentiation study, cells were activated with SIINFEKL peptide (4×10^−9M) in the presence of various metabolites (arginine: 3 mM; 3-methylhistidine: 3 mM; N-acetylneuraminate: 100 μM; disodium sebacate: 100 μM; DHB: 100 μM; pantothenate: 100 μM; γ-aminobutyric acid: 100 μM; glycerol: 100 μM; AICAR: 100 μM, sodium ferulate: 100 μM) for 3 days. Then cells were washed three times with T-cell medium and further cultured with IL-2 (10 ng ml^−1; PeproTech) in the presence of metabolites for 5 days. The cells were then washed twice and re-activated with SIINFEKL peptide (10 μM) for 2 h. The suspension cells were collected, blocked with CD16/32 antibody and stained with the fixable viability dye eFluor 450, FITC-CD44 rat anti-human/mouse and PE-CD62L monoclonal antibody. To test if the central memory CD8+ T cells differentiation is dependent on dendritic cells, CD8 T cells isolated from the spleen in OT-I mice were incubated in the 96-well plate, which was precoated with anti-hamster IgG antibody. […] (1 μg mL^−1) and IL-2 (100 U mL^−1) were added into each well in the presence of 3-methylhistidine (3 mM), DHB (100 μM), or sodium ferulate (100 μM) for 2 days. Then cells were washed for three times to remove α-CD3/α-CD28 antibodies and further incubated with metabolites and IL-2 (10 ng ml^−1) for 5 days. Thereafter, cells were collected for central memory CD8^+ T cells analysis. For CD8^+ T cells survival study, cells were activated with antigen peptide as above, following with thoroughly washing, and incubation in presence of IL-2 for 2 days. Metabolites were added during this incubation (arginine: 3 mM, 1 mM; 3-methylhistidine: 3 mM, 1 mM, 500 μM, 100 μM; N-acetylneuraminate: 100 μM; disodium sebacate: 100 μM; DHB: 100 μM, 50 μM, 20 μM; pantothenate: 100 μM; γ-aminobutyric acid: 100 μM; glycerol: 100 μM; AICAR: 100 μM). Then cells were further incubated in absence of both IL-2 and metabolites for 36 h to induce the apoptosis/dead. For Tcf1^+CD8^+ differentiation study, cells were activated with antigen peptide as above, followed by thoroughly washing, and incubation with metabolites in presence of IL-2 for 3 days. […] Tcf1^+CD8^+, CD44^+CD62L^+CD8^+ and survival (stained with Annexin V-APC and PI) T cells were detected via flow cytometry.

As to `CCOC(=O)Oc1ccc(C(=O)OCC)cc1OC(=O)OCC` [Prodrug #905, ethyl 3,4-bis((ethoxycarbonyl)oxy)benzoate], in data set [1], the “encapsulation in lipid-based dose forms” value is reported as “can be successfully encapsulated”. As to `CN(CC(=O)O)C(=N)N` [creatine], in data set [2], the “efficacy of immune checkpoint blockers (ICBs)” value is listed as “improve the efficacy of immune checkpoint blockers”. As for `CSCC[C@H](N)C(=O)O` [methionine], the “efficacy of immune checkpoint blockers (ICBs)” value in data set [2] is “improve the efficacy of immune checkpoint blockers”. As to `COc1cc(/C=C/C(=O)[O-])ccc1O.[Na+]` [sodium ferulate], the “frequency of Tcf1+CD8+ T cells” value with OT-I CD8+ T cells [3] is listed as “increased the frequency”. The “differentiation of CD44+CD62L+ central memory CD8+ T cells” value in the data set on OT-I CD8+ T cells [4] was “significantly increased the differentiation”.
